Laboratory results taken from ChEMBL document CHEMBL1909046, “DrugMatrix in vitro pharmacology data”.

Assays:
[1] = molecular target: T1, Interstitial collagenase (Homo sapiens, UniProt P03956); assay: biochemical; format: tissue-based, Rheumatoid synovial fibroblasts;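 also: MMP-1 enzyme inhibition assay using a peptide substrate; in other assays of this panel Not Active means under 50% inhibition at 10 µM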
T1 sequence (P03956 whole entry): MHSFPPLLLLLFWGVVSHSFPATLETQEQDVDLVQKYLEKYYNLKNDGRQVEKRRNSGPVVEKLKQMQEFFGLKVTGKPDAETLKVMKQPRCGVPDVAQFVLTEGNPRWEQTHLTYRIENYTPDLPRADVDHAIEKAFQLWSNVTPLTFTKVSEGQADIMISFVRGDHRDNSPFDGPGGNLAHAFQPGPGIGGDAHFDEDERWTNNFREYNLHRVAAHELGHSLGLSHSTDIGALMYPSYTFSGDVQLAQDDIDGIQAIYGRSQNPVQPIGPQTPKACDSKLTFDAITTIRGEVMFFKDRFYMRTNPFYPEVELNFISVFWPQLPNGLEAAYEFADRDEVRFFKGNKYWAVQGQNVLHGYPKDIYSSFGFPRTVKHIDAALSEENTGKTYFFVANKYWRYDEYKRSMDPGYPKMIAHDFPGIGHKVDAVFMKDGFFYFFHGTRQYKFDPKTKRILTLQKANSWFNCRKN

[2] = molecular target: C-C chemokine receptor type 2 (Homo sapiens, UniProt P41597); format: cell membranes, CHO-K1, Membrane; conditions: cho-k1; also: in other assays of this panel Not Active means under 50% inhibition at 10 µM
C-C chemokine receptor type 2, sequence (P41597 whole entry): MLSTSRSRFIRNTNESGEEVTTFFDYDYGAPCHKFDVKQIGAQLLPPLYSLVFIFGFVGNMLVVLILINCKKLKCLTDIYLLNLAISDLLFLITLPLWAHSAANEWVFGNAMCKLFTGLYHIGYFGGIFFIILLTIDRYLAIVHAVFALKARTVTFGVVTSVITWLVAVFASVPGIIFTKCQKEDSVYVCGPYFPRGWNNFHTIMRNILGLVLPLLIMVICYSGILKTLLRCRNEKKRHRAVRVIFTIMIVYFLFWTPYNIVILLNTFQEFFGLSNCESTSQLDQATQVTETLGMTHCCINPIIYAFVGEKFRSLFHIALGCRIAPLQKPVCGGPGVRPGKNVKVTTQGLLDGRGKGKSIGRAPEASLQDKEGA

[3] = molecular target: Epidermal growth factor receptor (Homo sapiens, UniProt P00533); assay: DRUGMATRIX: Protein Tyrosine Kinase, EGF Receptor enzyme inhibition (substrate: Poly(Glu:Tyr)); format: cell-based, Insect cells; conditions: insect cells; Not Active = under 50% inhibition at 10 µM
Epidermal growth factor receptor, sequence (P00533 whole entry): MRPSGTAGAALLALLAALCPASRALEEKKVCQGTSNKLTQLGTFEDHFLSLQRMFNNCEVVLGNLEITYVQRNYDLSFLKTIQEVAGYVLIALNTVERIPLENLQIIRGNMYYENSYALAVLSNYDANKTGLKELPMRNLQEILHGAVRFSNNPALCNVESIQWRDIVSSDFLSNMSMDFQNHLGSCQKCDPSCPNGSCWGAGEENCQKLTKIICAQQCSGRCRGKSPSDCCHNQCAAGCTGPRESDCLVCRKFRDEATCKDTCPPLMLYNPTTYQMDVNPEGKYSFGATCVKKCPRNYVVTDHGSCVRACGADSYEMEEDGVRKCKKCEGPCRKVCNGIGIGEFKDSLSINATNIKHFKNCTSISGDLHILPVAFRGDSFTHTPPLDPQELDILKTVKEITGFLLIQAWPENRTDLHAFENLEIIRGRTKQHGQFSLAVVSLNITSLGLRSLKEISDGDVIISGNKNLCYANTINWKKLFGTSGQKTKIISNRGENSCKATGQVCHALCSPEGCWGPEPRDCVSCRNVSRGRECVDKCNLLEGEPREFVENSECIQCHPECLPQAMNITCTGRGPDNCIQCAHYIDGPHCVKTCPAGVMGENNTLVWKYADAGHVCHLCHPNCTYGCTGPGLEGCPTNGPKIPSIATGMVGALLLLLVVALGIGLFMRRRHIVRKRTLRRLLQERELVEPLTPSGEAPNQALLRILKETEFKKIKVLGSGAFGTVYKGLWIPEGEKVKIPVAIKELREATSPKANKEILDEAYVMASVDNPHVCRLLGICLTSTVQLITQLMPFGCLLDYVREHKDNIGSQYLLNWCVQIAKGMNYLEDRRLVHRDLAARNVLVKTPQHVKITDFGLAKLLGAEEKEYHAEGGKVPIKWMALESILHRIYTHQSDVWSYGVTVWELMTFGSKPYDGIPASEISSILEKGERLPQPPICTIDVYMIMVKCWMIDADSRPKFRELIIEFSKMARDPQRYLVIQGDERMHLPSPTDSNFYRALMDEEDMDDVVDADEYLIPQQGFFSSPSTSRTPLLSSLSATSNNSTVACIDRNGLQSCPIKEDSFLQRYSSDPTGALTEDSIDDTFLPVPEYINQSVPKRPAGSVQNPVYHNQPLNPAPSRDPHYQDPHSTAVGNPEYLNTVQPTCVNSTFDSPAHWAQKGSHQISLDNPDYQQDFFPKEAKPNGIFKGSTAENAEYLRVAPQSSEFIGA

[4] = molecular target: Sodium-dependent noradrenaline transporter (Homo sapiens, UniProt P23975); assay: DRUGMATRIX: Norepinephrine Transporter radioligand binding (ligand: [125I] RTI-55); format: cell membranes, MDCK, Membrane; conditions: Not Active = under 50% inhibition at 10 µM
Sodium-dependent noradrenaline transporter, sequence (P23975 whole entry): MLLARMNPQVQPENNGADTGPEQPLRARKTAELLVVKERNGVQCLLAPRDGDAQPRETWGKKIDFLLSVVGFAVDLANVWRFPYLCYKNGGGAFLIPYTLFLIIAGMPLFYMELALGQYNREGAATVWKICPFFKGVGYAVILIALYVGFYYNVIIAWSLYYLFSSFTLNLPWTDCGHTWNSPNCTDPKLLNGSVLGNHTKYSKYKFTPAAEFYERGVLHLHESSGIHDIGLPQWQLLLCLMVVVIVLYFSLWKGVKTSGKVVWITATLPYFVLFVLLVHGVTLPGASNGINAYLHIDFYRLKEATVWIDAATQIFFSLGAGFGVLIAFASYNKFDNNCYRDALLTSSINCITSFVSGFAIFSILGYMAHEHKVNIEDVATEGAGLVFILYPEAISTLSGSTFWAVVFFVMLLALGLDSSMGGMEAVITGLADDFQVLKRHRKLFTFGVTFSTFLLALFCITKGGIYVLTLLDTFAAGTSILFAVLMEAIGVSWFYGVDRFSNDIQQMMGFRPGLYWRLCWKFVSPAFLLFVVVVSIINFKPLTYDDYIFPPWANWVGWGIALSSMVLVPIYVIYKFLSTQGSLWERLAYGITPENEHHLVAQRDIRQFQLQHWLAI

[5] = molecular target: T2, Alpha-1D adrenergic receptor (Homo sapiens, UniProt P25100); format: cell membranes, HEK293, Membrane; conditions: hek293; also: in other assays of this panel Not Active means under 50% inhibition at 10 µM
T2 sequence (P25100 whole entry): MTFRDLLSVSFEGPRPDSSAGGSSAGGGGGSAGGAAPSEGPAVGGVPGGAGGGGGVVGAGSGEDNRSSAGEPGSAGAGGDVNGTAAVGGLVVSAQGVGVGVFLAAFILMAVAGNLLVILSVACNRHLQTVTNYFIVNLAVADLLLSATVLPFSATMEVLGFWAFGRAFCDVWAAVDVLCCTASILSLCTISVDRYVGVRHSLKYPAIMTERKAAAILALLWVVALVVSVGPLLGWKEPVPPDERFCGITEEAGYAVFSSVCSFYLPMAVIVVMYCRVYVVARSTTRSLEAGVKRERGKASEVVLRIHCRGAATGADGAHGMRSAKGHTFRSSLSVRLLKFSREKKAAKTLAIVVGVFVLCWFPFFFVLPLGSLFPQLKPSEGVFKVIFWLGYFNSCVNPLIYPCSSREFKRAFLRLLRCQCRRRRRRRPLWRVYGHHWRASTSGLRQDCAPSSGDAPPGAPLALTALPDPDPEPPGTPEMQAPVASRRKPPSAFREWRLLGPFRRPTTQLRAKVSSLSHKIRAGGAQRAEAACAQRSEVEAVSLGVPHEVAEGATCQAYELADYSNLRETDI

[6] = molecular target: Acetylcholinesterase (Homo sapiens, UniProt P22303); assay: DRUGMATRIX: Acetylcholinesterase enzyme inhibition (substrate: acetylthiocholine); format: cell-based, HEK293; conditions: hek293; Not Active = under 50% inhibition at 10 µM
Acetylcholinesterase, sequence (P22303 whole entry): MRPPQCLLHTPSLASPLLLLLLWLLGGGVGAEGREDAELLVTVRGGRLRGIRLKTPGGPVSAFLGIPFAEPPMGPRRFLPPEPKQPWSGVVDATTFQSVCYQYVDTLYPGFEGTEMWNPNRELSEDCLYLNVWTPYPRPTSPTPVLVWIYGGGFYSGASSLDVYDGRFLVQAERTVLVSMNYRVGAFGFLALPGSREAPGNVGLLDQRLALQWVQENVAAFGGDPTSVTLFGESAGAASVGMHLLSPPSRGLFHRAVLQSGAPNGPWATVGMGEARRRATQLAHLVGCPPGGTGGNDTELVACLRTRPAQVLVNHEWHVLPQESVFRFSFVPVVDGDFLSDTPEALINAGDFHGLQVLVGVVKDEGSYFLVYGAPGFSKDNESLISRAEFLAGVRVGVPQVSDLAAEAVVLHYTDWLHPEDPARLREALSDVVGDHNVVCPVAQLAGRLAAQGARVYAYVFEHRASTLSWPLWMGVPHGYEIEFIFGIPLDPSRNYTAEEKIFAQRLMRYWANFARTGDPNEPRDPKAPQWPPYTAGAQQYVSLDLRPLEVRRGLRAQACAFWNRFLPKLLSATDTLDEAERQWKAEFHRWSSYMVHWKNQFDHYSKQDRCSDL

[7] = DRUGMATRIX: Atrial Natriuretic Factor (ANF) radioligand binding (ligand: [125I] ANF (rat)); format: cell membranes, Cavia porcellus, Dunkin-Hartley, Adrenal gland, Membrane; conditions: Not Active = under 50% inhibition at 10 µM
[8] = molecular target: T3, Alpha-1B adrenergic receptor (Rattus norvegicus, UniProt P15823); assay: DRUGMATRIX: Alpha-1B adrenergic receptor radioligand binding (ligand: prazosin); format: cell membranes, Wistar, Liver, Membrane; conditions: Not Active = under 50% inhibition at 10 µM
T3 sequence (P15823 whole entry): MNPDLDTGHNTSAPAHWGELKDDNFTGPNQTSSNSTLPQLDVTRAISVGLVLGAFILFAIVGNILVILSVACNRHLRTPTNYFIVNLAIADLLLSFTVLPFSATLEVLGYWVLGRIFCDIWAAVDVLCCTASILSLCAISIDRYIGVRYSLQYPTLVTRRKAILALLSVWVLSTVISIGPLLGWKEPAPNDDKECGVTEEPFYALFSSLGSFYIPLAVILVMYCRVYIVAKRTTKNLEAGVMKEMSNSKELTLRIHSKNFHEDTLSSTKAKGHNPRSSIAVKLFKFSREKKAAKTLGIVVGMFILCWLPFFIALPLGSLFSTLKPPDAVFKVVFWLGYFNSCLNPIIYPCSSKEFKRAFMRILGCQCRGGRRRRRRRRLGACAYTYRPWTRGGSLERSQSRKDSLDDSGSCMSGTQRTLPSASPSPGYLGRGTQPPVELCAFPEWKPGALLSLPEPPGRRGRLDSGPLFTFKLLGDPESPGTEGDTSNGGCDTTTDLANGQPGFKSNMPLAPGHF

[9] = molecular target: T4, 5-hydroxytryptamine receptor 1A (Rattus norvegicus, UniProt P19327); format: cell membranes, Membrane; conditions: cho-k1; also: in other assays of this panel Not Active means under 50% inhibition at 10 µM
T4 sequence (P19327 whole entry): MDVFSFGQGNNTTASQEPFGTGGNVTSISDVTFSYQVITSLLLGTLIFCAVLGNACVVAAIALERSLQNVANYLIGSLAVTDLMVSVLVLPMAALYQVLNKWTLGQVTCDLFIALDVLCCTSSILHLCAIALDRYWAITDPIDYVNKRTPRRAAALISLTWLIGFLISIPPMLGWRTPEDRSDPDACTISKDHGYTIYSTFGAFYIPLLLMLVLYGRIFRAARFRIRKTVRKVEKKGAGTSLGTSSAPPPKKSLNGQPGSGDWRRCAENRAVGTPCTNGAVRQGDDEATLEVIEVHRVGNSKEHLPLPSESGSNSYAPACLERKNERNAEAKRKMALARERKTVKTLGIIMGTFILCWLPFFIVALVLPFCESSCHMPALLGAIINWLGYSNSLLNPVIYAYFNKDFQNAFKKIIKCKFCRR

[10] = molecular target: T5, Neuropeptide Y receptor type 2 (Homo sapiens, UniProt P49146); format: cell membranes, Membrane; conditions: kan-ts; also: in other assays of this panel Not Active means under 50% inhibition at 10 µM
T5 sequence (P49146 whole entry): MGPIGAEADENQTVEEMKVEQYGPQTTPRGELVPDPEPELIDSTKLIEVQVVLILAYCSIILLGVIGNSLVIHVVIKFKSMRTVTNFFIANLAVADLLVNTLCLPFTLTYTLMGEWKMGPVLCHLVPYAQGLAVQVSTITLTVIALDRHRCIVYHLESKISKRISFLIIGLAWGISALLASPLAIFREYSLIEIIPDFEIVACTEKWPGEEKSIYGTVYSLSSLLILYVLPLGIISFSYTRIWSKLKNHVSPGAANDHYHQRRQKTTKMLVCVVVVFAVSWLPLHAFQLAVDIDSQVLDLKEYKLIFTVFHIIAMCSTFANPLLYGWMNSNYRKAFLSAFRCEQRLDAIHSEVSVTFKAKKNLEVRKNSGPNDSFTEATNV

| SMILES | IC50 [1] | IC50 [2] | IC50 [3] | IC50 ([4]; mdck) | IC50 [5] | IC50 [6] | IC50 [7] | Ki [7] | IC50 [8] | IC50 [9] | IC50 [10] | Ki [2] | IC50 ([4]; read-out: IC50) [nM] | Ki ([4]; read-out: Ki) [nM] |
| --- | --- | --- | --- | --- | --- | --- | --- | --- | --- | --- | --- | --- | --- | --- |
| CNC(=C[N+](=O)[O-])NCCSCc1ccc(CN(C)C)o1 [RANITIDINE] | Not Active | Not Active | Not Active | Not Active | Not Active | Not Active | Not Active | Not Active | Not Active | Not Active | Not Active |  |  |  |
| CO[C@H]1/C=C/O[C@@]2(C)Oc3c(C)c(O)c4c(c3C2=O)C2=NC3(CCN(CC(C)C)CC3)NC2=C(NC(=O)/C(C)=C\C=C\[C@H](C)[C@H](O)[C@@H](C)[C@@H](O)[C@@H](C)[C@H](OC(C)=O)[C@@H]1C)C4=O [RIFABUTIN] | Not Active | Not Active | Not Active | Not Active | Not Active | Not Active | Not Active | Not Active | Not Active | Not Active | Not Active |  |  |  |
| CC(C)c1nc(CN(C)C(=O)N[C@H](C(=O)N[C@@H](Cc2ccccc2)C[C@H](O)[C@H](Cc2ccccc2)NC(=O)OCc2cncs2)C(C)C)cs1 [RITONAVIR] | Not Active | Not Active | Not Active | Not Active | Not Active | Not Active | Not Active | Not Active | Not Active | Not Active | Not Active |  |  |  |
| [H]/N=C(/N)N[C@H]1[C@H](O)[C@@H](O)[C@H](O[C@@H]2O[C@@H](C)[C@](O)(C=O)[C@H]2O[C@@H]2O[C@@H](CO)[C@H](O)[C@@H](O)[C@@H]2NC)[C@@H](N/C(N)=N\[H])[C@@H]1O [STREPTOMYCIN] | Not Active | Not Active | Not Active | Not Active | Not Active | Not Active | Not Active | Not Active | Not Active | Not Active | Not Active |  |  |  |
| COc1cc(NS(=O)(=O)c2ccc(N)cc2)nc(OC)n1 [SULFADIMETHOXINE] | Not Active | Not Active | Not Active | Not Active | Not Active | Not Active | Not Active | Not Active | Not Active | Not Active | Not Active |  |  |  |
| Cc1cc(C)nc(NS(=O)(=O)c2ccc(N)cc2)n1 [SULFAMETHAZINE] | Not Active |  | Not Active | Not Active | Not Active | Not Active | Not Active | Not Active | Not Active | Not Active | Not Active | Not Active |  |  |
| C[C@]1(Cn2ccnn2)[C@H](C(=O)O)N2C(=O)C[C@H]2S1(=O)=O [TAZOBACTAM] | Not Active | Not Active | Not Active | Not Active | Not Active | Not Active | Not Active | Not Active | Not Active | Not Active | Not Active |  |  |  |
| CN1C(C(=O)Nc2ccccn2)=C(O)c2sccc2S1(=O)=O [TENOXICAM] | Not Active | Not Active | Not Active | Not Active | Not Active | Not Active | Not Active | Not Active | Not Active | Not Active | Not Active |  |  |  |
| O=C1CCC(N2C(=O)c3ccccc3C2=O)C(=O)N1 (stereo not given) [THALIDOMIDE] | Not Active | Not Active | Not Active | Not Active | Not Active | Not Active | Not Active | Not Active | Not Active | Not Active | Not Active |  |  |  |
| Cc1cccc(Nc2ccncc2S(=O)(=O)NC(=O)NC(C)C)c1 [TORSEMIDE] | Not Active | Not Active | Not Active | Not Active | Not Active | Not Active | Not Active | Not Active | Not Active | Not Active | Not Active |  |  |  |
| CC(C)C[C@H](NC(=O)[C@@H](O)[C@H](N)Cc1ccccc1)C(=O)O [UBENIMEX] | Not Active | Not Active | Not Active | Not Active | Not Active | Not Active | Not Active | Not Active | Not Active | Not Active | Not Active |  |  |  |
| Cc1onc(-c2ccccc2)c1-c1ccc(S(N)(=O)=O)cc1 [VALDECOXIB] | Not Active | Not Active | Not Active |  | Not Active | Not Active | Not Active | Not Active | Not Active | Not Active | Not Active |  | 2930 | 2900 |
| CC[C@]1(O)C[C@@H]2CN(CCc3c([nH]c4ccccc34)[C@@](C(=O)OC)(c3cc4c(cc3OC)N(C)[C@H]3[C@@](O)(C(=O)OC)[C@H](OC(C)=O)[C@]5(CC)C=CCN6CC[C@]43[C@@H]65)C2)C1 [VINBLASTINE] | Not Active | Not Active | Not Active | Not Active | Not Active | Not Active | Not Active | Not Active | Not Active | Not Active | Not Active |  |  |  |
| CC(=O)CC(c1ccccc1)c1c(O)c2ccccc2oc1=O (stereo not given) [WARFARIN] | Not Active | Not Active | Not Active | Not Active | Not Active | Not Active | Not Active | Not Active | Not Active | Not Active | Not Active |  |  |  |
